Target: T1, human GLP-1R (Homo sapiens, UniProt P43220)
T1 construct: host or cells: HEK293
Test: GLP-1R cAMP assay (Example B1a, HTRF, 30 min at room temperature)
Format: cell-based
Details: cAMP accumulation in HEK293 expressing human GLP-1R, no BETP, 30 min room temperature (Method B1a, compounds ID 1-609), Table 1; read-out: EC50
Procedure, shortened: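 Competitive HTRF read-out of cAMP after 30 min room-temperature stimulation, BETP absent, of human GLP-1R-HEK293 cells (1,000/well) in HEPES buffer with 500 μM IBMX and 0.1% BSA. Activation normalised to GLP-1(7-37) positive control. EC50 from 4-parameter non-linear regression.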

T1 sequence (P43220 24-463): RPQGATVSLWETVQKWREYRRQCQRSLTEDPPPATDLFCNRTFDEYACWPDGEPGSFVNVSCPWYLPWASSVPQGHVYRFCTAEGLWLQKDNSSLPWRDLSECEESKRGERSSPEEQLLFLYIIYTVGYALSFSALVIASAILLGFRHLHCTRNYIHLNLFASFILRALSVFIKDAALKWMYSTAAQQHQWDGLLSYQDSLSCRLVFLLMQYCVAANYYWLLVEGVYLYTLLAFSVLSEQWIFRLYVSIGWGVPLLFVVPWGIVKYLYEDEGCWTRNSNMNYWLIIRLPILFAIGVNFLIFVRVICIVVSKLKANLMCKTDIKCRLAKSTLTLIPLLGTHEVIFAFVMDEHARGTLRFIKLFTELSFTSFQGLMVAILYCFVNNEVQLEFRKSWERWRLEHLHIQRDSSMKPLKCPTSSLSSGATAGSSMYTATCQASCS

Cc1cc(-n2nc3c(c2-n2ccn(-c4ccc5c(cnn5C)c4F)c2=O)[C@@H]2CC[C@H](C3)N2C(=O)c2cc3cc([C@H]4CCOC(C)(C)C4)ccc3n2C(C)(C)c2noc(=O)[nH]2)cc(C)c1F [Compound 140, 3-[1-[5-[(4S)-2,2-dimethyltetrahydropyran-4-yl]-2-[(1S,8R)-4-(4-fluoro-3,5-dimethyl-phenyl)-3-[3-(4-fluoro-1-methyl-indazol-5-yl)-2-oxo-imidazol-1-yl]-4,5,11-triazatricyclo[6.2.1.02,6]undeca-2,5-diene-11-carbonyl]indol-1-yl]-1-methyl-ethyl]-4H-1,2,4-oxadiazol-5-one] and Cc1cc(-n2nc3c(c2-n2ccn(-c4ccc5c(cnn5C)c4F)c2=O)[C@H]2CC[C@@H]([C@H]3F)N2C(=O)c2cc3cc([C@H]4CCOC(C)(C)C4)ccc3n2[C@@]2(c3noc(=O)[nH]3)C[C@@H]2C)cc(C)c1F [Compound 514, 3-[(1S,2S)-1-[5-[(4S)-2,2-dimethyltetrahydropyran-4-yl]-2-[(1R,7R,8S)-7-fluoro-4-(4-fluoro-3,5-dimethyl-phenyl)-3-[3-(4-fluoro-1-methyl-indazol-5-yl)-2-oxo-imidazol-1-yl]-4,5,11-triazatricyclo[6.2.1.02,6]undeca-2,5-diene-11-carbonyl]indol-1-yl]-2-methyl-cyclopropyl]-4H-1,2,4-oxadiazol-5-one] cannot be ordered by EC50: > 10000 nM for the first, ≥ 10000 nM for the second.

Cc1cc(-n2nc3c(c2-n2ccn(-c4cc(F)c5c(cnn5C)c4F)c2=O)[C@@H]2COC[C@H](C3)N2C(=O)c2cc3cc(C4CCOC5(CC5)C4)ccc3n2[C@@]2(c3noc(=O)[nH]3)C[C@@H]2C)cc(C)c1F (stereo partly drawn) [Compound 242, 3-((1S,2S)-1-(2-((4R,8S)-3-(3-(4,7-difluoro-1-methyl-1H-indazol-5-yl)-2-oxo-2,3-dihydro-1H-imidazol-1-yl)-2-(4-fluoro-3,5-dimethylphenyl)-2,4,5,7,8,9-hexahydro-4,8-epiminooxocino [5,4-c]pyrazole-10-carbonyl)-5-(4-oxaspiro[2.5]octan-7-yl)-1H-indol-1-yl)-2-methylcyclopropyl)-1,2,4-oxadiazol-5 (4H)-one] and COc1cc2c(F)c(-n3ccn(-c4c5c(nn4-c4cc(C)c(F)c(C)c4)C[C@H]4CC[C@@H]5N4C(=O)c4cc5cc([C@H]6CCOC(C)(C)C6)ccc5n4[C@@]4(c5noc(=O)[nH]5)C[C@@H]4C)c3=O)ccn2n1 [Compound 431, 3-((1S,2S)-1-(5-((S)-2,2-dimethyltetrahydro-2H-pyran-4-yl)-2-((4S,7R)-3-(3-(4-fluoro-2-methoxypyrazolo[1,5-a]pyridin-5-yl)-2-oxo-2,3-dihydro-1H-imidazol-1-yl)-2-(4-fluoro-3,5-dimethylphenyl)-2,4,5,6,7,8-hexahydro-4,7-epiminocyclohepta [c]pyrazole-9-carbonyl)-1H-indol-1-yl)-2-methylcyclopropyl)-1,2,4-oxadiazol-5 (4H)-one] are within 1.5-fold of each other in EC50: 168 nM for the first, 125 nM for the second.

Cc1cc(-n2nc3c(c2-c2nnc(-c4ccc5c(cnn5C)c4F)o2)[C@H](C)N(C(=O)c2cc4cc([C@H]5CCOC(C)(C)C5)ccc4n2[C@@]2(c4noc(=O)[nH]4)C[C@@H]2C)CC3)cc(C)c1F [Compound 5, 3-((1S,2S)-1-(5-((S)-2,2-dimethyltetrahydro-2H-pyran-4-yl)-2-((S)-3-(5-(4-fluoro-1-methyl-1H-indazol-5-yl)-1,3,4-oxadiazol-2-yl)-2-(4-fluoro-3,5-dimethylphenyl)-4-methyl-4,5,6,7-tetrahydro-2H-pyrazolo[4,3-c]pyridine-5-carbonyl)-1H-indol-1-yl)-2-methylcyclopropyl)-1,2,4-oxadiazol-5 (4H)-one] was tested, and the EC50 was > 10000 nM.

Same assay, conditions: text to Table 1d, bridge atoms configured out of the plane or toward the reader

In the case of Cc1cc(-n2nc3c(c2-n2ccn(-c4ccc5c(cnn5C)c4F)c2=O)[C@H]2CC[C@@H]([C@H]3F)N2C(=O)c2cc3cc([C@H]4CCOC(C)(C)C4)ccc3n2[C@@]2(c3noc(=O)[nH]3)C[C@@H]2C)cc(C)c1F [Compound 514, 3-[(1S,2S)-1-[5-[(4S)-2,2-dimethyltetrahydropyran-4-yl]-2-[(1R,7R,8S)-7-fluoro-4-(4-fluoro-3,5-dimethyl-phenyl)-3-[3-(4-fluoro-1-methyl-indazol-5-yl)-2-oxo-imidazol-1-yl]-4,5,11-triazatricyclo[6.2.1.02,6]undeca-2,5-diene-11-carbonyl]indol-1-yl]-2-methyl-cyclopropyl]-4H-1,2,4-oxadiazol-5-one], the potency is reported as “little or no potency”.
